Results published in patent publication US20250126968A1, “Light-Emitting Device” (Semiconductor Energy Laboratory Co., Ltd., priority 2023, published 2025).

Assay: Solubility test of PrdP2Phen by LC-MS analysis
Type: physicochemical
Settings: 1 mg in 1 mL of water, ultrasonic waves 5 minutes, membrane-filtered, filtrate analysed by LC-MS; one atmosphere, room temperature
Description: Next, a solubility test of PrdP2Phen was performed. Note that the solubility test was conducted at a pressure of one atmosphere at room temperature (RT).
In the LC-MS analysis, liquid chromatography (LC) separation was carried out with ACQUITY UPLC (Waters Corporation), and MS analysis (mass spectrometry) was carried out with Xevo G2 Tof MS (Waters Corporation). Acquity UPLC BEH C8 (2.1×100 mm, 1.7 μm) was used as a column for the LC separation. Acetonitrile was used for Mobile Phase A and a 0.1% aqueous solution of formic acid was used for Mobile Phase B. The injection amount of the sample was 5.0 μL. Note that in the analysis, the wavelength of a photodiode array detector was set to 263 nm±1 nm.
In a 5-mL sample bottle, 1 mg of PrdP2Phen was put and 1 mL of water was added thereto. This mixture was irradiated with ultrasonic waves for 5 minutes. This mixture was filtered through a membrane filter to remove the solid, and the resulting filtrate was diluted by five times with acetonitrile. The obtained solution was subjected to LC-MS analysis.

solubility in water: extremely low solubility in water
Structure (SMILES): c1cc(-c2ccc(N3CCCC3)cc2)c2ccc3c(-c4ccc(N5CCCC5)cc4)ccnc3c2n1 [PrdP2Phen, 4,7-bis[4-(1-pyrrolidinyl)phenyl]-1,10-phenanthroline]
